Results from US11691949B2, “Quinoline sulfonamide compounds and their use as antibacterial agents” (OTAGO INNOVATION LIMITED, priority 2017, dated 2023).
Values after ≈ are worked out from the molar mass of the structure shown. Where two headings read alike, the source gives them in different places.

Key:
Format in all cases: cell-based
E. coli ATCC 10536 = test: MBC by Miles-Misra drop-plate method, E. coli; conditions: Escherichia coli
Protocol: (§1) Antibacterial susceptibility testing was performed in triplicate (biological) by measuring minimum inhibitory concentrations (MICs) by broth microdilution in 96-well flat bottom microtiter plates (ThermoFisher Scientific, New Zealand). S. uberis ATCC 19436, S. aureus ATCC 6538, or E. coli ATCC 10596 cells grown overnight were diluted to an OD600 of approximately 0.025, so that the final concentration of cells in the MIC assay was approximately 5×10^5 cfu/mL in media as follows: S. uberis; Todd Hewitt Broth (THB), S. aureus; Tryptic Soy Broth (TSB) and Cation Adjusted Muller Hinton Broth (CAMHB), and E. coli; Lysogeny Borth (LB) and CAMHB, before being dispensed into microtiter wells. As required additional sterile Zinc Sulphate (Heptahydrate) was supplemented into the media, so the final concentration was 50 μM. Test compounds were added to starting wells and two-fold serial dilutions were undertaken to generate a range of inhibitor concentrations at a final volume of 200 μl. Media and test compound-free (untreated) controls were included in each microtiter plate in triplicate. After 24 h incubation at 37° C. and 200 rpm, the OD600 of wells were read using a Varioskan Flash plate reader (ThermoFisher Scientific, New Zealand). The MIC was reported as the lowest concentration of the test compound for which no growth occurred, as determined by OD600 readings. The minimum bactericidal concentration (MBC) was determined using the Miles-Misra drop-plate method to measure the viability of cells in response to test compound challenge.

S. uberis ATCC 19436 [1] = test: MIC by broth microdilution, S. uberis; conditions: Streptococcus uberis
Procedure, shortened: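 This broth microdilution assay used S. uberis ATCC 19436 in Todd Hewitt Broth, with zinc sulphate heptahydrate added where required to a final 50 μM. Inhibitor concentration ranges came from two-fold serial dilutions in 96-well flat bottom plates at 200 μl. Approximately 5×10^5 cfu/mL cells were incubated for 24 h at 37° C. and 200 rpm. Wells were then read at OD600 on a Varioskan Flash reader.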

E. coli ATCC 10596 = test: MIC by broth microdilution, E. coli; conditions: Escherichia coli
Procedure, shortened: (§2)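 Two-fold serial dilutions were tested in broth at ~5×10^5 cfu/mL: S. aureus in TSB or CAMHB, E. coli in LB or CAMHB, with 50 μM zinc sulphate added as required. After 24 h at 37° C, 200 rpm, MIC was the lowest concentration showing no growth by OD600.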

S. aureus ATCC 6538 [2] = test: MIC by broth microdilution, S. aureus; conditions: Staphylococcus aureus
Procedure, shortened: as §2

S. aureus ATCC 6538 [3] = test: MBC by Miles-Misra drop-plate method, S. aureus; conditions: Staphylococcus aureus
Protocol: as §1

S. uberis ATCC 19436 [4] = test: MBC by Miles-Misra drop-plate method, S. uberis; conditions: Streptococcus uberis
Protocol: as §1

[5] = ATCC10536, read-out: E. coli ATCC 10536 MBC, No Zinc
[6] = ATCC10536, read-out: E. coli ATCC 10536 MBC, Zinc (50 μM)
[7] = ATCC19436, read-out: S. uberis ATCC 19436 MIC, No Zinc
[8] = ATCC19436, read-out: S. uberis ATCC 19436 MIC, Zinc (50 μM)
[9] = ATCC 10536 / ATCC 10596, read-out: E. coli ATCC 10536 MIC, No Zinc
[10] = ATCC 10536 / ATCC 10596, read-out: E. coli ATCC 10536 MIC, Zinc (50 μM)
[11] = ATCC6538, read-out: S. aureus ATCC 6538 MIC, No Zinc
[12] = ATCC6538, read-out: S. aureus ATCC 6538 MIC, Zinc (50 μM)
[13] = ATCC6538, read-out: S. aureus ATCC 6538 MBC, No Zinc
[14] = ATCC6538, read-out: S. aureus ATCC 6538 MBC, Zinc (50 μM)
[15] = ATCC19436, read-out: S. uberis ATCC 19436 MBC, No Zinc
[16] = ATCC19436, read-out: S. uberis ATCC 19436 MBC, Zinc (50 μM)
[17] = ATCC10536, No Zinc, read-out: E. coli ATCC 10536 MBC
[18] = ATCC10536, Zinc (50 μM), read-out: E. coli ATCC 10536 MBC
[19] = ATCC19436, No Zinc, read-out: S. uberis ATCC 19436 MIC
[20] = ATCC19436, Zinc (50 μM), read-out: S. uberis ATCC 19436 MIC
[21] = ATCC 10536 / ATCC 10596, No Zinc, read-out: E. coli ATCC 10536 MIC
[22] = ATCC 10536 / ATCC 10596, Zinc (50 μM), read-out: E. coli ATCC 10536 MIC
[23] = ATCC6538, No Zinc, read-out: S. aureus ATCC 6538 MIC
[24] = ATCC6538, Zinc (50 μM), read-out: S. aureus ATCC 6538 MIC
[25] = ATCC6538, No Zinc, read-out: S. aureus ATCC 6538 MBC
[26] = ATCC6538, Zinc (50 μM), read-out: S. aureus ATCC 6538 MBC
[27] = ATCC19436, No Zinc, read-out: S. uberis ATCC 19436 MBC
[28] = ATCC19436, Zinc (50 μM), read-out: S. uberis ATCC 19436 MBC

MIC (S. uberis ATCC 19436 [1]; [19]) [µg/mL] | MIC (S. uberis ATCC 19436 [1]; [20]) [µg/mL] | MIC (E. coli ATCC 10596; [21]) [µg/mL] | MIC (E. coli ATCC 10596; [22]) [µg/mL] | MIC (S. aureus ATCC 6538 [2]; [23]) [µg/mL] | MIC (S. aureus ATCC 6538 [2]; [24]) [µg/mL] | SMILES | MBC (E. coli ATCC 10536; [5]) [µg/mL] | MBC (E. coli ATCC 10536; [6]) [µg/mL] | MIC (S. uberis ATCC 19436 [1]; [7]) [µg/mL] | MIC (S. uberis ATCC 19436 [1]; [8]) [µg/mL] | MIC (E. coli ATCC 10596; [9]) [µg/mL] | MIC (E. coli ATCC 10596; [10]) [µg/mL] | MIC (S. aureus ATCC 6538 [2]; [11]) [µg/mL] | MIC (S. aureus ATCC 6538 [2]; [12]) [µg/mL] | MBC (S. aureus ATCC 6538 [3]; [13]) [µg/mL] | MBC (S. aureus ATCC 6538 [3]; [14]) [µg/mL] | MBC (S. uberis ATCC 19436 [4]; [15]) [µg/mL] | MBC (S. uberis ATCC 19436 [4]; [16]) [µg/mL] | MBC (E. coli ATCC 10536; [17]) [µg/mL] | MBC (E. coli ATCC 10536; [18]) [µg/mL] | further results
 |  |  |  |  |  | CN(C)CCCNCc1ccc2cccc(NS(=O)(=O)c3ccc(C(F)(F)F)cc3)c2n1 [ZDR090, N-(2-(((3-(Dimethylamino)propyl)amino)methyl)quinolin-8-yl)-4-(trifluoromethyl)benzenesulfonamide di-trifluoroacetate] | 16 (≈ 34.3 µM) | 16 (≈ 34.3 µM) | 4 (≈ 8.57 µM) | 0.5 (≈ 1.07 µM) | 16 (≈ 34.3 µM) | 16 (≈ 34.3 µM) | 16 (≈ 34.3 µM) | 16 (≈ 34.3 µM) | 16 (≈ 34.3 µM) | 32 (≈ 68.6 µM) | 8 (≈ 17.1 µM) | 0.5 (≈ 1.07 µM) |  |  | 
4 (≈ 7.06 µM) | 0.125 (≈ 0.221 µM) | > 256 | > 256 | 4 (≈ 7.06 µM) | 4 (≈ 7.06 µM) | O=S(=O)(Nc1cccc2ccc(/C=N/NC(=S)NCCN3CCOCC3)nc12)c1ccc(C(F)(F)F)cc1 [ZDR119, (E)-N-(2-Morpholinoethyl)-2-((8-((4-(trifluoromethyl)phenyl)sulfonamido)quinolin-2-yl)methylene)hydrazine-1-carbothioamide] |  |  |  |  |  |  |  |  |  |  |  |  | > 256 | > 256 | MBC (S. aureus ATCC 6538 [3]; [25]): > 256 µg/mL; MBC (S. aureus ATCC 6538 [3]; [26]): 32 µg/mL (≈ 56.5 µM); MBC (S. uberis ATCC 19436 [4]; [27]): 16 µg/mL (≈ 28.2 µM); MBC (S. uberis ATCC 19436 [4]; [28]): 1 µg/mL (≈ 1.76 µM)
 |  |  |  |  |  | CN1CCN(CCCNCc2ccc3cccc(NS(=O)(=O)c4ccc(C(F)(F)F)cc4)c3n2)CC1 [ZDR117, N-(2-(((3-(4-Methylpiperazin-1-yl)propyl)amino)methyl)quinolin-8-yl)-4-(trifluoromethyl)benzenesulfonamide di-trifluoroacetate] | 256 (≈ 491 µM) | 64 (≈ 123 µM) | 16 (≈ 30.7 µM) | 4 (≈ 7.67 µM) | 128 (≈ 245 µM) | 32 (≈ 61.3 µM) | 64 (≈ 123 µM) | 64 (≈ 123 µM) | 64 (≈ 123 µM) | 64 (≈ 123 µM) | 16 (≈ 30.7 µM) | 4 (≈ 7.67 µM) |  |  | 
8 (≈ 16.9 µM) | 0.5 (≈ 1.06 µM) | > 256 | > 256 | 4 (≈ 8.45 µM) | 4 (≈ 8.45 µM) | O=S(=O)(Nc1cccc2ccc(CNc3ccccc3O)nc12)c1ccc(C(F)(F)F)cc1 [ZDR171, N-(2-(((2-Hydroxyphenyl)amino)methyl)quinolin-8-yl)-4-(trifluoromethyl)benzenesulfonamide] |  |  |  |  |  |  |  |  |  |  |  |  | > 256 | > 256 | MBC (S. aureus ATCC 6538 [3]; [25]): 16 µg/mL (≈ 33.8 µM); MBC (S. aureus ATCC 6538 [3]; [26]): 32 µg/mL (≈ 67.6 µM); MBC (S. uberis ATCC 19436 [4]; [27]): 8 µg/mL (≈ 16.9 µM); MBC (S. uberis ATCC 19436 [4]; [28]): 0.5 µg/mL (≈ 1.06 µM)
 |  |  |  |  |  | O=C(CNCc1ccc2cccc(NS(=O)(=O)c3ccc(C(F)(F)F)cc3)c2n1)NCCN1CCCCC1 [ZDR269, N-(2-(Piperidin-1-yl)ethyl)-2-(((8-((4-(trifluoromethyl)phenyl)sulfonamido)quinolin-2-yl)methyl)amino)acetamide di-trifluoroacetate] | 64 (≈ 116 µM) | 64 (≈ 116 µM) | 4 (≈ 7.28 µM) | 8 (≈ 14.6 µM) | 64 (≈ 116 µM) | 64 (≈ 116 µM) | 32 (≈ 58.2 µM) | 64 (≈ 116 µM) | 64 (≈ 116 µM) | 128 (≈ 233 µM) | 4 (≈ 7.28 µM) | 16 (≈ 29.1 µM) |  |  | 
